Assay results: patent US20170007663A1, “METHODS AND COMPOSITIONS FOR TREATING AND […] DYSFUNCTION” (CORNELL UNIVERSITY, priority 2013, published 2017)
Non-standard residues stand in square brackets, D forms with d. No end group written: not given here.

What was measured:
mu-opioid receptor = mu-opioid receptor (Homo sapiens, UniProt P35372); conditions: stated without a described test; cited from earlier work
[1] = system: several mammalian cell types; conditions: cited from earlier work
[2] = system: cerebral metabolic rate of oxygen (CMRO); experiment: Burst suppression model (Ching et al.) for cerebral metabolic rate of oxygen
From the text: A burst suppression model, as described in Ching et al., PNAS, 109(8): 3095-3100, (2012), will be used to determine the effect of D-Arg-2′,6′-Dmt-Lys-Phe-NH2 on CMRO. A range of 10^−9 to 10^−6 molar concentration of D-Arg-2′,6′-Dmt-Lys-Phe-NH2 will be assayed and compared to untreated and control peptide assays.

Sequence of mu-opioid receptor (P35372 whole entry, species assumed): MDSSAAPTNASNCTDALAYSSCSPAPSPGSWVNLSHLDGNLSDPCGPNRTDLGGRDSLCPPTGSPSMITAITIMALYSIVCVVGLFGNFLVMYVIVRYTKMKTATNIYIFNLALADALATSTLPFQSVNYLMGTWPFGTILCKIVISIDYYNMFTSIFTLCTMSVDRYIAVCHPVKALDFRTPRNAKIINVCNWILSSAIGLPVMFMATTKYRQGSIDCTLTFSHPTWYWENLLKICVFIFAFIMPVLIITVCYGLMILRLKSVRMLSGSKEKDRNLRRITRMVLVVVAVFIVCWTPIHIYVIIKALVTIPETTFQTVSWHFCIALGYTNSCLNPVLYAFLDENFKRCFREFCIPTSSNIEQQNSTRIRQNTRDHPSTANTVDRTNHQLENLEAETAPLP

Substance | mu-opioid receptor agonist activity (mu-opioid receptor) | penetration of the plasma membrane [1] | CMRO ([2]; 10^−9 to 10^−6 molar, compared to untreated and control peptide assays) | cerebral metabolism / neuronal cellular and network function ([2]; burst suppression model, FIG. 1)
Tyr-D-Arg-Phe-Lys-NH2 | has mu-opioid receptor agonist activity |  |  | 
2′,6′-Dmt-D-Arg-Phe-Lys-NH2 |  | readily penetrates the plasma membrane of several mammalian cell types in an energy-independent manner |  | 
F[dR]FK-NH2 | does not have mu-opioid receptor agonist activity |  |  | 
D-Arg-2′,6′-Dmt-Lys-Phe-NH2 | does not have mu-opioid receptor agonist activity |  | increase in CMRO | increase in cerebral metabolism and/or a restoration of neuronal cellular and network function
